Reference: patent US20230404972A1, “INHIBITION OF CASPASE PATHWAY AS A TREATMENT FOR LYSOSOMAL STORAGE DISORDERS” (Lysosomal and Rare Disorders Research and Treatment Center, …, priority 2020, published 2023)

Key:
Caspase 1 = molecular target: T1, Caspase 1 (Homo sapiens, UniProt P29466); test: Caspase-Glo 1 inflammasome assay in PBMCs from LSD patients; format: cell-based; settings: 1 μM, 6 hr, vs untreated PBMCs
T1 construct: Caspase 1 activity within the PBMCs; endogenous in cells; host or cells: primary PBMCs from LSD patients
T1 sequence (P29466 120-297 limits assumed): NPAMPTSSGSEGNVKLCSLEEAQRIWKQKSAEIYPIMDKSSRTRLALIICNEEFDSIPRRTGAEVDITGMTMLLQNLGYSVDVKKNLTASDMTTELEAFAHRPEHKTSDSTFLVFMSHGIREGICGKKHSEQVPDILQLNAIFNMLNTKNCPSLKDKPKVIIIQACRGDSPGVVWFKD
T1 sequence (P29466 317-404 limits assumed): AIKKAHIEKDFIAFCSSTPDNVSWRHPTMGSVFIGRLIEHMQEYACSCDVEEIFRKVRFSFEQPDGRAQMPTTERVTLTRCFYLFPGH
Experimental: PBMCs are extracted from 3-5 ml peripheral blood using Ficoll-Paque (GE health care). 2-4 ml of whole blood is diluted 1:2 using Phosphate buffered saline (PBS) containing 2% fetal bovine serum (FBS) and overlayed onto Ficoll solution in 15 ml leucosep tube. The tubes are centrifuged at 2000 g for 10 minutes with no brakes. The layer containing PBMCs is transferred into a fresh 15 ml tube and washed with PBS+2% FBS. The cells are then resuspended in RPMI+10% FBS. The cells were then counted using heniocytometer and plated into 96 well plates and set at 37° C. incubator with 5% CO2.
The pan-caspase inhibitor, Emricasan (Sigma-Aldrich, Inc., St. Louis, MO, USA), was added to the PBMCs in 96-well plates to a final concentration of 1 μM. After 6 hr of Emricasan treatment, the cells were divided into two groups and used for 1) measurement of Caspase 1 activity within the PBMCs using Caspase-Glo 1 inflammasome assay (Promega, Madison, WI, USA), and 2) the supernatant was collected after centrifuging at 3000 rpm for 5 min to perform ELISA assays for cytokines: IL-1 beta and IL-18 as well as macrophage activation markers: Chitotriosidase and CCL18. […]
(§1) Caspase-1 mediated inflammasome cleaves pro-IL-1 beta and pro-IL-18 into active forms II-1 beta and IL-18 which are secreted from the cells. […] Relative decrease for each sample was calculated as relative to untreated PBMCs (FIG. 3A and 3B). […]

Chitotriosidase = Chitotriosidase assay (4-Methylumbelliferone chitotrioside substrate) of PBMC cell culture supernatant; format: cell-based, human; settings: PBMCs from LSD patients, 1 μM, 6 hr, with vs without treatment
IL-1 beta = IL-1 beta ELISA of PBMC cell culture supernatant; format: cell-based, human; settings: PBMCs from LSD patients, 1 uM, 6 hr, relative to untreated PBMCs
Experimental: (§2) PBMCs are extracted from 3-5 ml peripheral blood using Ficoll-Paque (GE health care). 2-4 ml of whole blood is diluted 1:2 using Phosphate buffered saline (PBS) containing 2% fetal bovine serum (FBS) and overlayed onto Ficoll solution in 15 ml leucosep tube. The tubes are centrifuged at 2000 g for 10 minutes with no brakes. The layer containing PBMCs is transferred into a fresh 15 ml tube and washed with PBS+2% FBS. The cells are then resuspended in RPMI+10% FBS. The cells were then counted using heniocytometer and plated into 96 well plates and set at 37° C. incubator with 5% CO2. […]
(§3) Caspase-1, IL-1 beta and IL-18 were quantified as a measure of capase-1 activity. CCL18 and chitotriosidase were measured as to indicate macrophage activation and reflect clinical outcomes. ELISAs were performed as per manufacturer's protocols to quantify the following cytokines: 1) Caspase 1 (Therrnofisher Scientific, Waltham, MA, USA), 2) IL-1 beta, 3) IL-18 (Abcam, Cambridge, MA, USA), 4) CCL-18 cytokines-1 (Themofisher scientific, Waltham, MA, USA). […]
as §1

CCL18 = CCL18 ELISA of PBMC cell culture supernatant; format: cell-based, human; settings: PBMCs from LSD patients, 1 μM, 6 hr, with vs without treatment
IL-18 = IL-18 ELISA of PBMC cell culture supernatant; format: cell-based, human; settings: PBMCs from LSD patients, 1 uM, 6 hr, relative to untreated PBMCs
Experimental: as §2, §3, §1

With `C[C@H](NC(=O)C(=O)Nc1ccccc1C(C)(C)C)C(=O)N[C@@H](CC(=O)O)C(=O)COc1c(F)c(F)cc(F)c1F` [Emricasan, (3S)-3-({N-[{[2-(2-Methyl-2-propanyl)phenyl]amino}(oxo)acetyl]alanyl}amino)-4-oxo-5-(2,3,5,6-tetrafluorophenoxy) pentanoic acid] as the compound, how does the “Caspase 1 activity within the PBMCs” value (Caspase 1) read?
Its value is “reduced”.

And the “production of chitotriosidase (macrophage activation biomarker) in cell culture medium” value (Chitotriosidase)?
Its value is “significant decrease”.

What about the “secreted IL-1 beta in the cell culture supernatant” value (IL-1 beta) of the same compound?
The value was “significant decrease”.

And the “production of CCL18 (macrophage activation biomarker) in cell culture medium” value (CCL18)?
The value was “significant decrease”.

And the “secreted IL-18 in the cell culture supernatant” value (IL-18)?
The value was “significant decrease”.
